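In this assay, cells in 96-well plates receive the compound at five concentrations for 48 hours. Endpoints are linearly interpolated between the surrounding concentrations. At the GI50, growth is halved.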 The source made the active and inactive calls. Cut-off read from the data, not from the text of the source: active = GI50 up to about 1.1 µM and inactive = higher.
What was measured:
Experiment in all cases: inhibition of tumour cell growth, NCI panel, 48 h
CAKI-1 = test system: CAKI-1
HCC 2998 = test system: HCC 2998
KM12 = test system: KM12
LOX IMVI = test system: LOX IMVI
NCI-H23 = test system: NCI-H23
NCI-H460 = test system: NCI-H460
NCI-H522 = test system: NCI-H522
OVCAR-4 = test system: OVCAR-4
OVCAR-5 = test system: OVCAR-5
RXF 393 = test system: RXF 393
SF-268 = test system: SF-268
SK-MEL-28 = test system: SK-MEL-28
SK-MEL-5 = test system: SK-MEL-5
SN12C = test system: SN12C
TK-10 = test system: TK-10
UACC-257 = test system: UACC-257
UO-31 = test system: UO-31
MCF7 = test system: MCF7
PC-3 = test system: PC-3

Structure (SMILES) | GI50 (CAKI-1) | GI50 (HCC 2998) | GI50 (KM12) | GI50 (LOX IMVI) | GI50 (NCI-H23) | GI50 (NCI-H460) | GI50 (NCI-H522) | GI50 (OVCAR-4) | GI50 (OVCAR-5) | GI50 (RXF 393) | GI50 (SF-268) | GI50 (SK-MEL-28) | GI50 (SK-MEL-5) | GI50 (SN12C) | GI50 (TK-10) | GI50 (UACC-257) | GI50 (UO-31) | GI50 (MCF7) | GI50 (PC-3)
CCOc1cc2cnc3c4cc(OC)c(OC)cc4ccc3c2cc1OC | > 100 µM (inactive) | > 100 µM (inactive) | 46.9 µM (inactive) | 65 µM (inactive) | > 100 µM (inactive) | > 100 µM (inactive) | 15.2 µM (inactive) | 86.7 µM (inactive) | > 100 µM (inactive) | > 100 µM (inactive) | 37.3 µM (inactive) | > 100 µM (inactive) | > 100 µM (inactive) | 30 µM (inactive) | > 100 µM (inactive) | > 100 µM (inactive) | > 100 µM (inactive) | – | –
O=c1c(Cc2c(O)ccc3ccccc23)nnc2sc(-c3nn4c(=O)c(Cc5c(O)ccc6ccccc56)nnc4s3)nn12 | > 100 µM (inactive) | > 100 µM (inactive) | – | > 100 µM (inactive) | 54.7 µM (inactive) | – | – | > 100 µM (inactive) | > 100 µM (inactive) | 22.9 µM (inactive) | 8.63 µM (inactive) | – | – | > 100 µM (inactive) | 37.3 µM (inactive) | > 100 µM (inactive) | > 100 µM (inactive) | 18 µM (inactive) | > 100 µM (inactive)
c1ncc(C23C4C5C6C4C2C6C53)[nH]1 (stereo not given) | > 100 µM (inactive) | > 100 µM (inactive) | > 100 µM (inactive) | > 100 µM (inactive) | > 100 µM (inactive) | > 100 µM (inactive) | – | > 100 µM (inactive) | > 100 µM (inactive) | > 100 µM (inactive) | > 100 µM (inactive) | > 100 µM (inactive) | > 100 µM (inactive) | > 100 µM (inactive) | > 100 µM (inactive) | > 100 µM (inactive) | > 100 µM (inactive) | > 100 µM (inactive) | > 100 µM (inactive)
Oc1ccc(-c2nc(-c3cccnc3)c(-c3ccc(F)cc3)[nH]2)cc1 | 28.6 µM (inactive) | 19.8 µM (inactive) | 18.2 µM (inactive) | 12.5 µM (inactive) | 12.7 µM (inactive) | 23.3 µM (inactive) | – | 17.7 µM (inactive) | 30.2 µM (inactive) | 17.6 µM (inactive) | 22.5 µM (inactive) | 19.9 µM (inactive) | 16.3 µM (inactive) | 23.9 µM (inactive) | 18.6 µM (inactive) | 17.6 µM (inactive) | > 10 µM (inactive) | 16 µM (inactive) | 16.7 µM (inactive)
O=C1CCCC2=C1CC1=C(CCCC1=O)N2c1cccc([N+](=O)[O-])c1 | > 100 µM (inactive) | > 100 µM (inactive) | > 100 µM (inactive) | > 100 µM (inactive) | > 100 µM (inactive) | > 100 µM (inactive) | – | > 100 µM (inactive) | > 100 µM (inactive) | 67.9 µM (inactive) | > 100 µM (inactive) | > 100 µM (inactive) | > 100 µM (inactive) | > 100 µM (inactive) | > 100 µM (inactive) | – | > 100 µM (inactive) | 64 µM (inactive) | > 100 µM (inactive)
O=C1/C(=C/c2cccs2)NC(=S)N1CN1CCOCC1 | – | – | > 100 µM (inactive) | > 100 µM (inactive) | > 100 µM (inactive) | – | – | – | > 100 µM (inactive) | – | > 100 µM (inactive) | > 100 µM (inactive) | > 100 µM (inactive) | > 100 µM (inactive) | 34.1 µM (inactive) | 29 µM (inactive) | > 100 µM (inactive) | > 100 µM (inactive) | > 100 µM (inactive)
CSc1ccc(/C=C2\N=C(c3ccccc3)N(c3nc4c(Cl)cc(Cl)cc4s3)C2=O)cc1 | 31 µM (inactive) | 29 µM (inactive) | 23 µM (inactive) | 29.9 µM (inactive) | – | 25.6 µM (inactive) | – | 21.2 µM (inactive) | 31.1 µM (inactive) | 41 µM (inactive) | 28.2 µM (inactive) | 31.1 µM (inactive) | 16.2 µM (inactive) | 24.8 µM (inactive) | 39.2 µM (inactive) | 25.2 µM (inactive) | 22.2 µM (inactive) | 24.9 µM (inactive) | 20.4 µM (inactive)
CS(=O)(=O)c1nc(-c2cc3c(c(S(C)(=O)=O)n2)CCC3)cc2c1CCC2 | > 100 µM (inactive) | > 100 µM (inactive) | > 100 µM (inactive) | > 100 µM (inactive) | > 100 µM (inactive) | > 100 µM (inactive) | > 100 µM (inactive) | > 100 µM (inactive) | > 100 µM (inactive) | 33.7 µM (inactive) | 44.3 µM (inactive) | > 100 µM (inactive) | > 100 µM (inactive) | > 100 µM (inactive) | > 100 µM (inactive) | > 100 µM (inactive) | > 100 µM (inactive) | – | > 100 µM (inactive)
CCOC(=O)c1ccc(NCC#CCN2CCCCC2)cc1 | – | – | > 100 µM (inactive) | > 100 µM (inactive) | > 100 µM (inactive) | – | – | > 100 µM (inactive) | 83.6 µM (inactive) | > 100 µM (inactive) | > 100 µM (inactive) | > 100 µM (inactive) | 38.5 µM (inactive) | > 100 µM (inactive) | – | – | > 100 µM (inactive) | 73.8 µM (inactive) | > 100 µM (inactive)
O=C1/C(=C/c2ccccc2S)N=C(c2ccccc2)N1c1ccc2c(c1)Sc1cc(N3C(=O)/C(=C/c4ccccc4S)N=C3c3ccccc3)ccc1N2 | 18.7 µM (inactive) | 20.5 µM (inactive) | 34 µM (inactive) | 20.3 µM (inactive) | – | 23.7 µM (inactive) | – | 32.6 µM (inactive) | 18.7 µM (inactive) | – | 19.5 µM (inactive) | 21.7 µM (inactive) | 17 µM (inactive) | 19.2 µM (inactive) | 17.4 µM (inactive) | 20.4 µM (inactive) | 15.8 µM (inactive) | 21 µM (inactive) | 21.4 µM (inactive)
Cc1cc2c(c(/C=N/c3ccccc3O)c1)OC1(C=C2)Oc2ccccc2C(=O)N1C (stereo not given) | 13.3 µM (inactive) | 15.8 µM (inactive) | 20.8 µM (inactive) | 12.8 µM (inactive) | 17.8 µM (inactive) | 16.7 µM (inactive) | – | 23.1 µM (inactive) | 13.2 µM (inactive) | 13 µM (inactive) | 14.4 µM (inactive) | 18.3 µM (inactive) | 15.2 µM (inactive) | 20.9 µM (inactive) | 16.8 µM (inactive) | 14.1 µM (inactive) | 10.6 µM (inactive) | – | 17.4 µM (inactive)
CC(C(=O)n1ccnc1)N1c2ccccc2Sc2ccccc21 (stereo not given) | – | – | 71.3 µM (inactive) | 82.8 µM (inactive) | 78.7 µM (inactive) | 92 µM (inactive) | – | > 100 µM (inactive) | 65.3 µM (inactive) | > 100 µM (inactive) | 98.2 µM (inactive) | > 100 µM (inactive) | 35 µM (inactive) | 96.6 µM (inactive) | > 100 µM (inactive) | 79.4 µM (inactive) | 70.1 µM (inactive) | 53.1 µM (inactive) | 55.1 µM (inactive)
N#C/C(C(=S)NCc1ccccc1)=C(/N)N1CCCC1 | > 100 µM (inactive) | > 100 µM (inactive) | > 100 µM (inactive) | > 100 µM (inactive) | > 100 µM (inactive) | > 100 µM (inactive) | > 100 µM (inactive) | > 100 µM (inactive) | > 100 µM (inactive) | 74.3 µM (inactive) | > 100 µM (inactive) | > 100 µM (inactive) | > 100 µM (inactive) | > 100 µM (inactive) | > 100 µM (inactive) | > 100 µM (inactive) | > 100 µM (inactive) | – | > 100 µM (inactive)
COc1cc2c(cc1OC)C(=O)C1(C2)[C@H](c2ccccc2)C2C(=O)c3cc(OC)c(OC)cc3C2[C@H]1c1ccccc1 (stereo not given in full) | 0.259 µM (active) | > 100 µM (inactive) | > 100 µM (inactive) | > 100 µM (inactive) | > 100 µM (inactive) | 49.1 µM (inactive) | > 100 µM (inactive) | > 100 µM (inactive) | > 100 µM (inactive) | 63.5 µM (inactive) | > 100 µM (inactive) | > 100 µM (inactive) | > 100 µM (inactive) | > 100 µM (inactive) | > 100 µM (inactive) | > 100 µM (inactive) | > 100 µM (inactive) | – | > 100 µM (inactive)
Cn1cc(S(=O)(=O)NC(=O)Nc2ccc(Cl)cc2)c(=O)c2ccc(F)cc21 | > 100 µM (inactive) | > 100 µM (inactive) | 47.6 µM (inactive) | 22.6 µM (inactive) | > 100 µM (inactive) | > 100 µM (inactive) | 32 µM (inactive) | > 100 µM (inactive) | > 100 µM (inactive) | > 100 µM (inactive) | > 100 µM (inactive) | > 100 µM (inactive) | > 100 µM (inactive) | > 100 µM (inactive) | > 100 µM (inactive) | > 100 µM (inactive) | > 100 µM (inactive) | – | > 100 µM (inactive)
CN(Cc1cnc2nc(N)nc(N)c2n1)c1ccc(C(=O)NCCCS(=O)(=O)O)cc1 | – | > 100 µM (inactive) | > 100 µM (inactive) | 75.9 µM (inactive) | > 100 µM (inactive) | > 100 µM (inactive) | > 100 µM (inactive) | > 100 µM (inactive) | > 100 µM (inactive) | – | > 100 µM (inactive) | > 100 µM (inactive) | > 100 µM (inactive) | > 100 µM (inactive) | > 100 µM (inactive) | > 100 µM (inactive) | > 100 µM (inactive) | > 100 µM (inactive) | > 100 µM (inactive)

— ChEMBL document CHEMBL1201862, “PubChem BioAssay data set” (2004)
